Entries after “also recorded” stand apart in the source; their conditions may differ.
Assays:
kindlin-2 = assay: Microscale thermophoresis (MST), kindlin-2; type: binding; conditions: titration of kindlin-2 to 200 nM ATTO488-labeled cytoplasmic tail peptide; n≥3
Method: Kindlin-2 was expressed and purified as described in [Böttcher et al. (2017)]. Briefly, kindlin constructs were cloned into pCoofy17 ([Scholz et al., 2013]), which adds an N-terminal His10-Sumo tag and expressed soluble in E. coli Rosetta at 18°C overnight. After purification by immobilized-metal affinity chromatography (IMAC) in high-salt TBS buffer (20 mM Tris, pH 7.5, 500 mM NaCl, 1 mM TCEP), the Sumo tag was removed by SenP2 (obtained from MPIB Biochemistry Core Facility) digest overnight and the protein was further purified by SEC using TBS (20 mM Tris-HCl pH 7.5, 200 mM NaCl, 1 mM TCEP) containing 5% glycerol as running and storage buffer. After the final chromatography, the purity, integrity and identity of recombinant kindlin-2 and talin-1 head domain were controlled by UV spectrum, SDS-PAGE, high-resolution total mass and dynamic light scattering (DLS).
All MST measurements were performed on a Monolith NT.115 red-blue (Nanotemper, Munich, Germany) using premium-coated capillaries to reduce non-specific interaction of the proteins with the glass surface. Both interaction partners (ligand and receptor) were transferred into MST buffer (20 mM Tris-HCl pH 7.5, 200 mM sodium chloride, 1 mM TCEP and 0.05% Tween-20) to avoid artifacts derived from buffer mismatches. […] Data was analyzed using the MO Affinity Analysis Software (Nanotemper). […]

KANK-2 = assay: Peptide pulldown, KANK-2; type: binding; conditions: desthiobiotin tail peptide on streptavidin beads, RAC-11P lysate, 4°C, 4 h; western blot; two repeats
Method: (§1) Peptide pulldowns were carried out as previously described ([Böttcher et al., 2012]) with the mouse β1 wild-type cytoplasmic tail peptide ([…]-OH) and a scrambled peptide ([…]-OH), mouse β3 wild-type tail peptide ([…]-OH), mouse β5 wild-type tail peptide ([…]-OH), β5 Δ8aa tail peptide ([…]-OH) and scrambled peptide […].
(§2) The tail peptides were synthesized de novo with a desthiobiotin on the N-terminus, coupled to Dynabeads MyOne streptavidin C1 (10 mgml^−1, Invitrogen) and incubated with RAC-11P cell lysates (prepared with M-PER reagent, Thermo Fisher Scientific) at 4°C with rotation for 4 h. After three washes with wash buffer (M-PER diluted 1:1 with PBS), bound proteins were eluted in 2× Laemmli buffer at 95°C for 5 min and separated on an 8% SDS-PAGE gel.

talin = assay: Peptide pulldown, talin; type: binding; conditions: desthiobiotin tail peptide on streptavidin beads, RAC-11P lysate, 4°C, 4 h; western blot; two repeats
Method: as §1, §2

full-length human ARH = target: T1, full-length human ARH (Homo sapiens, UniProt Q5SW96); assay: Microscale thermophoresis (MST), ARH; type: binding; conditions: concentration range tested up to 50 µM for β1
T1 construct: The full-length human ARH gene was cloned into the pETNKI-6xhis-3C-LIC vector; made in house; host or cells: E. coli BL21(DE3)
T1 sequence (Q5SW96 1-308): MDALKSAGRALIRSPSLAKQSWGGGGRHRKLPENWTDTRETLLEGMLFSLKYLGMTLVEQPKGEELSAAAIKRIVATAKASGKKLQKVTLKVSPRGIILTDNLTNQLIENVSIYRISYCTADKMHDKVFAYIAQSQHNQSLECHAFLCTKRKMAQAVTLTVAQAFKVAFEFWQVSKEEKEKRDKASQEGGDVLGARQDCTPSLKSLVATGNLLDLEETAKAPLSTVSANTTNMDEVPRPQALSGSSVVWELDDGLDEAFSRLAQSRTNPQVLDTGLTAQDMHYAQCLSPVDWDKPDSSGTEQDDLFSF
Text: (§3) Fig. 2. Adaptor protein binding to integrin β subunits. (A) Colocalization of integrin chimeras fused to the promiscuous biotin ligase BirA* (green in merge) with vinculin (red; left panels) or clathrin (red; right panels) in PA-JEB/β4 keratinocytes. Actin is shown in blue. Nuclei are stained with DAPI (cyan). Scale bars: 20 μm. (B) Representative western blots of BioID assays performed using the integrin chimeras shown in A. Quantifications of ARH, Numb and talin signal intensities normalized to streptavidin-HRP levels are shown (n=3; bars show mean±s.d.). (C) Representative western blots of pulldown assays (from two repeats) using synthetic integrin β cytoplasmic domains in RAC-11P cell lysates.
The full-length human ARH gene was cloned into the pETNKI-6xhis-3C-LIC vector ([Luna-Vargas et al., 2011]) and 6xhis–ARH protein was produced in Bl21(DE3) E. coli cells. Cells were grown at 37°C until an optical density at 600 nm (OD600) of 0.6 was reached. Temperature was reduced to 30°C and protein was expressed upon induction with 0.4 mM IPTG for 3.5 h. Cells were harvested and resuspended in lysis buffer (20 mM HEPES, pH 7.5, 200 mM NaCl, 1 mM TCEP and 5 μg ml^−1 DNase). After sonication, cell debris and insoluble proteins were removed by centrifugation (21,000 g for 30 min). 6xhis–ARH was purified from the soluble fraction using nickel Sepharose beads and eluted in 20 mM HEPES, pH 7.5, 200 mM NaCl, 1 mM TCEP and 250 mM imidazole. Fractions containing 6xhi–ARH were further purified on a SEC650 size exclusion column (Bio-Rad), equilibrated with 20 mM HEPES, pH 7.5, 100 mM NaCl and 1 mM TCEP.
All MST measurements were performed on a Monolith NT.115 red-blue (Nanotemper, Munich, Germany) using premium-coated capillaries to reduce non-specific interaction of the proteins with the glass surface. Both interaction partners (ligand and receptor) were transferred into MST buffer (20 mM Tris-HCl pH 7.5, 200 mM sodium chloride, 1 mM TCEP and 0.05% Tween-20) to avoid artifacts derived from buffer mismatches. […] Data was analyzed using the MO Affinity Analysis Software (Nanotemper).

Numb = assay: Peptide pulldown, Numb; type: binding; conditions: desthiobiotin tail peptide on streptavidin beads, RAC-11P lysate, 4°C, 4 h; western blot; two repeats
Method: as §1, §2

ARH = assay: Peptide pulldown, ARH; type: binding; conditions: desthiobiotin tail peptide on streptavidin beads, RAC-11P lysate, 4°C, 4 h; western blot; two repeats
Method: as §1, §2

kindlin-1/2 = assay: Peptide pulldown, kindlin-1/2; type: binding; conditions: desthiobiotin tail peptide on streptavidin beads, RAC-11P lysate, 4°C, 4 h; western blot; two repeats
Method: as §1, §2

Numb-PTB (20-175) = target: T2, Numb-PTB (20-175) (Homo sapiens, UniProt P49757); assay: Microscale thermophoresis (MST), Numb; type: binding; conditions: concentration range tested up to 50 µM for β1
T2 construct: A pETNKI-6xhis-3C-Numb-PTB (20-175) construct was expressed in Rosetta2 (DE3) cells; 6xHis-3C (N, cleaved yes); made in house; host or cells: E. coli Rosetta2 (DE3)
T2 sequence (P49757 20-175): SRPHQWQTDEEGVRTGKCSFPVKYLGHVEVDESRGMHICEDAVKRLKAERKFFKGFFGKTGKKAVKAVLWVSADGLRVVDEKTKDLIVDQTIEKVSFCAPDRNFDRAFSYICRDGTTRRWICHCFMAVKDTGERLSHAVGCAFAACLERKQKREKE
Text: as §3
A pETNKI-6xhis-3C-Numb-PTB (20-175) construct was expressed in Rosetta2 (DE3) cells for 18 h at 20°C. Cells were lysed (25 mM Tris-HCl pH 8.0, 10 mM imidazole, 200 mM NaCl, 1 mM TCEP, 5 μg/ml DNase) and sonicated, after which insoluble proteins and cell debris were removed by centrifugation (21,000 g for 30 min at 4°C). Soluble lysate was applied to a nickel Sepharose column and beads were washed with wash buffer (lysis buffer without DNase) before protein was eluted in wash buffer supplemented with 250 mM imidazole. The 6xhis tag was cleaved off by his-3C protease during dialysis against 25 mM Tris-HCl pH 8.0, 100 mM NaCl, 1 mM TCEP, 16 h at 4°C. Elution fractions were pooled, diluted with six volumes of 20 mM HEPES pH 7.5, 1 mM TCEP and applied to a 1 ml Resource S cation-exchange column (Cytiva). Protein was eluted in a NaCl gradient (50–700 mM) in 25 mM HEPES (pH 7.5). 6xhis-Numb-PTB was concentrated and further purified by size-exclusion chromatography (SEC70 column, Bio-Rad) in 25 mM Tris-HCl pH 8.0, 200 mM NaCl and 1 mM TCEP.
All MST measurements were performed on a Monolith NT.115 red-blue (Nanotemper, Munich, Germany) using premium-coated capillaries to reduce non-specific interaction of the proteins with the glass surface. […] Data was analyzed using the MO Affinity Analysis Software (Nanotemper).

SW620 cells [1] = assay: Proliferation assay (Crystal Violet), SW620; type: cell-based, human; conditions: cilengitide added at day 1, measured day 1–5; concentration optimised per cell line, not given; three biological replicates
Method: (§4) Fig. 6. Integrin β5 promotes colorectal cancer cell proliferation. […] Cells were fixed after 3 days of treatment and β5 (green in merge) and vinculin (magenta) were visualized using confocal microscopy. Cell nuclei are shown in blue. Scale bars: 20 μm. (B) Cells were seeded on day 0 and proliferation was measured from day 1–5 in cells with or without cilengitide (added at day 1). (C,E) FACS plots showing the expression of β5 in SW620 (C) and HT29 (E) wild-type (WT) and β5 knockout cells. Cells stained with a secondary PE-conjugated antibody only were used as negative control (n=2). (D,F) Proliferation of SW620 and HT29 wild-type and β5 knockout cells. (G) Representative IF images showing integrin β5 (green in merge), vinculin (red), actin (blue), nuclei (cyan) in SW620 wild-type, β5-deficient, and cilengitide-treated cells that were cultured for 5 days on coverslips prior to fixation. Scale bars: 100 μm. (H,I) Proliferation of SW620 (H) and HT29 (I) wild-type and β5 knockout cells on 3.2 μg ml^−1 collagen. […]
(§5) Cells were seeded at a density of 5×10^4 cells per well in a 96-well plate and treated with cilengitide or DMSO, as indicated in the figure legend. […] Cells were air-dried overnight and lysed in 2% SDS, after which the OD value of Crystal Violet at 490 nm was determined using an Epoch microplate reader equipped with Gen5 software. […]

SW480 cells = assay: Proliferation assay (Crystal Violet), SW480; type: cell-based, human; conditions: cilengitide added at day 1, measured day 1–5; concentration optimised per cell line, not given; three biological replicates
Method: as §4, §5

integrin αVβ3/αVβ5 = conditions: stated as known, no reference given; cited from earlier work
Text: The integrin β5 plays a role in breast cancer and osteosarcoma cell proliferation ([Bianchi-Smiraglia et al., 2013]; [Lock et al., 2018]). Here, we analyzed the role of integrin β5 in cell proliferation of SW620, HT29 and SW480 colorectal cancer cells, in which β5 localizes predominantly in FCLs, FAs or is distributed equally in both adhesions, respectively. Because none of these cell lines express the integrin β3 subunit (Fig. S5A), we used the integrin αVβ3/αVβ5 antagonist cilengitide as a tool to inhibit αVβ5 function. The optimal concentration for inhibition was determined for each cell li ...

SW620 cells [2] = assay: Cell growth morphology (immunofluorescence), SW620; type: cell-based, human; conditions: cilengitide-treated SW620 cells cultured for 5 days on coverslips; control cells mainly formed a 2D monolayer
Method: (§6) Fig. 6. Integrin β5 promotes colorectal cancer cell proliferation. […] Cells were fixed after 3 days of treatment and β5 (green in merge) and vinculin (magenta) were visualized using confocal microscopy. Cell nuclei are shown in blue. Scale bars: 20 μm. (B) Cells were seeded on day 0 and proliferation was measured from day 1–5 in cells with or without cilengitide (added at day 1). (C,E) FACS plots showing the expression of β5 in SW620 (C) and HT29 (E) wild-type (WT) and β5 knockout cells. Cells stained with a secondary PE-conjugated antibody only were used as negative control (n=2). (D,F) Proliferation of SW620 and HT29 wild-type and β5 knockout cells. (G) Representative IF images showing integrin β5 (green in merge), vinculin (red), actin (blue), nuclei (cyan) in SW620 wild-type, β5-deficient, and cilengitide-treated cells that were cultured for 5 days on coverslips prior to fixation. Scale bars: 100 μm. (H,I) Proliferation of SW620 (H) and HT29 (I) wild-type and β5 knockout cells on 3.2 μg ml^−1 collagen. Results shown represent mean±s.d. of three biological replicates, of which each experiment was performed in triplicate. *P<0.05 (two-sided unpaired Student's t-test).
(§7) PA-JEB/β4 keratinocytes were seeded on glass coverslips and cultured in complete KGM medium for 24 h, and then treated with DMEM plus 10% FCS for 24 h. […]

[3] = test system: integrin β5 clustering in SW620, HT29 and SW480 cells; assay: Inhibition of β5 clustering (confocal microscopy); type: cell-based, human; conditions: cells fixed after 3 days of cilengitide treatment
Method: as §6, §7

HT29 cells = assay: Proliferation assay (Crystal Violet), HT29; type: cell-based, human; conditions: cilengitide added at day 1, measured day 1–5; concentration optimised per cell line, not given; three biological replicates
Method: as §4, §5

Row | Substance | binding to kindlin by MST (kindlin-2) | interaction with KANK-2 in pulldown (KANK-2) | interaction with talin in pulldown (talin) | binding to ARH by MST (β1) (full-length human ARH) | interaction with Numb in pulldown (Numb) | interaction with ARH in pulldown (ARH) | interaction with kindlin-1/2 in pulldown (kindlin-1/2) | binding to Numb by MST (β1) (Numb-PTB (20-175)) | proliferation, SW620 (SW620 cells [1]) | proliferation, SW480 (SW480 cells) | integrin αVβ3/αVβ5 antagonism (integrin αVβ3/αVβ5) | growth phenotype (SW620 cells [2]) | inhibition of β5 clustering [3] | proliferation, HT29 (HT29 cells)
1 | HDRREFAKFEKEKMNAKWDTGENPIYKSAVTTVVNPKYEGK-OH [β1, synthetic integrin β1 cytoplasmic tail peptide] | much higher affinity than β3 and β5 | interaction | interaction | no binding; also recorded: unable to detect binding | not β1 and β3, bind to Numb and ARH | not β1 and β3, bind to Numb and ARH | interaction | no binding; also recorded: unable to detect binding | – | – | – | – | – | –
2 | cilengitide (RGDFV; chains of the INN, looked up) [integrin αVβ3/αVβ5 antagonist] | – | – | – | – | – | – | – | – | significant decrease in proliferation | significant decrease in proliferation | antagonist | grew on top of each other | Inhibition of β5 clustering | significant decrease in proliferation

Reference: paper PMC9234671, “Molecular determinants of αVβ5 localization in flat clathrin lattices – role of αVβ5 in cell adhesion and proliferation” (Journal of Cell Science, 2022)
